# Results reported in PubChem BioAssay (NCI).
# Where “and” joins values, the source holds several entries; their conditions need not be identical. Equal entries are not always repeated.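 Cells were grown in 96-well plates and exposed to each compound for 48 hours at five concentrations; endpoints were interpolated linearly between bracketing concentrations, or set to the highest concentration if not reached. The concentration for 50% growth inhibition is given as GI50. TGI denotes the concentration required for complete inhibition of growth.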
# Key:
# Experiment in all cases: growth of human tumour cells (NCI), 48 h
# [1] = system: MDA-N
# [2] = system: DLD-1 colon
# [3] = system: XF 498 CNS
# [4] = system: HOP-18 NSCLC
# [5] = system: LXFL 529 NSCLC
# [6] = system: RXF-631 renal
# [7] = system: DMS 273 small cell lung
SMILES,GI50 [1],TGI [1],TGI [2],TGI [3],TGI [4],TGI [5],TGI [6],TGI [7]
O=C1C=C(OCCCl)C(=O)c2c(O)ccc(O)c21,0.236 µM,0.29 µM and 0.539 µM,,,,,,
COc1ccc(/C(C#N)=C(/N)SCc2ccccc2Cl)cc1,,,32.7 µM,30.3 µM,38.2 µM,31.2 µM,,
COC(=O)c1nc(N)nc(C(=O)OC)c1C(=O)c1ccccc1,,,> 100 µM,> 100 µM,> 100 µM,> 100 µM,> 100 µM,
COc1cc2nncc(SCc3ccc(Cl)c(Cl)c3)c2cc1OC,,> 100 µM,,81.3 µM,> 100 µM,> 100 µM,> 100 µM,> 100 µM
O=C1NC(c2ccccc2)N=C2Oc3ccccc3C=C12 (centres undefined),,1.12 µM,,,,,,
O=c1[nH]c2c(c3ccccc13)CCc1ccccc1-2,,,,,,> 100 µM,,> 100 µM
NC(=O)N/N=C(\CCC(=O)N(Cc1ccccc1)Cc1ccccc1)CC(=O)c1ccc(F)cc1,,,> 100 µM,,> 100 µM,> 100 µM,> 100 µM,
[O-][n+]1c2cc(CN3CCOCC3)c(CN3CCOCC3)cc2[n+]([O-])c2c(O)cccc21,,,6.8 µM,7.42 µM,18.6 µM,7.73 µM,> 55.9 µM,15 µM
Cc1cccc(N=C2NC(=O)C(CC(=O)Nc3ccccc3Cl)S2)c1 (centres undefined),,,> 100 µM,> 100 µM,,> 100 µM,> 100 µM,> 100 µM
COc1cc(-c2oc3c(OC)c(O)cc(O)c3c(=O)c2OC)ccc1O,,59.5 µM,,,,,,
COc1cc(/C=C\c2ccc(Cl)cc2)cc(OC)c1OC,,,> 100 µM,19.1 µM,> 100 µM,> 95.1 µM,> 100 µM,19.4 µM
COc1cc2c3cc1Oc1c(OC)c(OC)cc4c1C(Cc1ccc(cc1)Oc1cc(ccc1O)CC3N(C)CC2)N(C)CC4 (centres undefined),,17 µM,54.9 µM,,> 100 µM,27.8 µM,,
CN(C)C(=S)SCC(N)=O,,> 100 µM,,,,,,
COC(=O)C1C(/C=C/c2ccoc2)ON2CCC[C@@H]12 (some centres undefined),,,> 100 µM,,98 µM,> 100 µM,,> 100 µM
O=C(NC1C=Nc2ccccc2NC1=O)c1ccccc1Cl (centres undefined),,,> 100 µM,> 100 µM,> 100 µM,> 100 µM,> 100 µM,> 100 µM
COc1ccc(/C=N\O[Si](C)(C)C(C)(C)C)cc1O[Si](C)(C)C(C)(C)C,,,32.9 µM,32.7 µM,31.1 µM,29.9 µM,37.4 µM,34.1 µM
OC1c2ccccc2C2C(O)c3ccccc3C12 (centres undefined),,,> 100 µM,,> 100 µM,> 100 µM,> 100 µM,> 100 µM
O=C1NN=C(c2ccc([N+](=O)[O-])cc2)C1n1nc(-c2ccccc2)c2ccccc2c1=O (centres undefined),,,> 78.7 µM,> 100 µM,> 100 µM,> 100 µM,> 100 µM,> 68.3 µM
NNC(=S)N/N=C(/C(=O)Nc1ccc([N+](=O)[O-])cc1)c1nc2ccc([N+](=O)[O-])cc2[nH]c1=O,,,> 100 µM,> 100 µM,> 100 µM,,,
O=C1NN=CN2C(=O)CCC12 (centres undefined),,,> 100 µM,> 100 µM,,> 100 µM,> 100 µM,> 100 µM
CN(C)CC1=Nc2cccc3cccc(c23)N1,,35 µM,,,,,,
O=C(CC(=O)C1CCOC1=O)C(=O)Nc1ccc(Cl)cc1 (centres undefined),,,> 100 µM,,,> 100 µM,> 100 µM,> 100 µM
CC(C)=CCc1cc(C2COc3cc4c(c(O)c3C2=O)C=CC(C)(C)O4)c(O)cc1O (centres undefined),,27.5 µM,,,,,,
C=C(C)C(=O)O[C@H]1CC2=CC(CC(C)=C[C@H]3OC(=O)C(=C)C13)OC2=O (some centres undefined),,89.4 µM,,,,,,
